# Results: the supplement of paper PMC10307832
# Experiments:
# Experiment in all cases: relative viability (nuclei count vs DMSO), 5 days (fraction); higher = more cells survive
# Dovitinib + Palbociclib = compound: CN1CCN(c2ccc3nc(-c4c(N)c5c(F)cccc5[nH]c4=O)[nH]c3c2)CC1 [Dovitinib] + CC(=O)c1c(C)c2cnc(Nc3ccc(N4CCNCC4)cn3)nc2n(C2CCCC2)c1=O [Palbociclib] (partner 0.5 µM)
# Procedure, shortened: (§1)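 A single step with final 0.05% Triton X-100, 1% formaldehyde and 1 ug/ml Hoechst fixed the cells and stained nuclei 5 days after treatment. Lung cancer cell lines in 1536-well plates had been treated by pin tool the day after seeding with one drug alone or a fixed anchor-drug dose plus five library-drug doses (not always all listed) in √10 steps, and nuclei were counted on 4× images. Relative viability is the ratio of nuclei in treated wells to nuclei in vehicle wells, taken as the median of duplicate plates.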
# Dovitinib + Pictilisib = compound: CN1CCN(c2ccc3nc(-c4c(N)c5c(F)cccc5[nH]c4=O)[nH]c3c2)CC1 [Dovitinib] + CS(=O)(=O)N1CCN(Cc2cc3nc(-c4cccc5[nH]ncc45)nc(N4CCOCC4)c3s2)CC1 [Pictilisib] (partner 1 µM)
# Procedure, shortened: as §1
# Dovitinib + Phenformin = compound: CN1CCN(c2ccc3nc(-c4c(N)c5c(F)cccc5[nH]c4=O)[nH]c3c2)CC1 [Dovitinib] + N=C(N)NC(=N)NCCc1ccccc1 [Phenformin] (partner 250 µM)
# Procedure, shortened: as §1
# Dovitinib + Decitabine = compound: CN1CCN(c2ccc3nc(-c4c(N)c5c(F)cccc5[nH]c4=O)[nH]c3c2)CC1 [Dovitinib] + Nc1ncn([C@H]2C[C@H](O)[C@@H](CO)O2)c(=O)n1 [Decitabine] (partner 2 µM)
# Procedure, shortened: as §1
Cell Line,relative viability (Dovitinib + Palbociclib; first compound 0.02 µM),relative viability (Dovitinib + Palbociclib; first compound 0.06325 µM),relative viability (Dovitinib + Palbociclib; first compound 0.2 µM),relative viability (Dovitinib + Palbociclib; first compound 0.6325 µM),relative viability (Dovitinib + Palbociclib; first compound 2 µM),relative viability (Dovitinib + Pictilisib; first compound 0.02 µM),relative viability (Dovitinib + Pictilisib; first compound 0.06325 µM),relative viability (Dovitinib + Pictilisib; first compound 0.2 µM),relative viability (Dovitinib + Pictilisib; first compound 0.6325 µM),relative viability (Dovitinib + Pictilisib; first compound 2 µM),relative viability (Dovitinib + Phenformin; first compound 0.02 µM),relative viability (Dovitinib + Phenformin; first compound 0.06325 µM),relative viability (Dovitinib + Phenformin; first compound 0.2 µM),relative viability (Dovitinib + Phenformin; first compound 0.6325 µM),relative viability (Dovitinib + Phenformin; first compound 2 µM),relative viability (Dovitinib + Decitabine; first compound 0.02 µM),relative viability (Dovitinib + Decitabine; first compound 0.06325 µM),relative viability (Dovitinib + Decitabine; first compound 0.2 µM),relative viability (Dovitinib + Decitabine; first compound 0.6325 µM),relative viability (Dovitinib + Decitabine; first compound 2 µM)
NCI-H1651,0.538,0.532,0.526,0.53,0.549,0.577,0.528,0.598,0.551,0.5,0.336,0.352,0.485,0.347,0.275,0.578,0.62,0.577,0.652,0.59
NCI-H1792,0.642,0.668,0.684,0.583,0.643,0.315,0.205,0.294,0.288,0.291,0.384,0.264,0.482,0.357,0.322,0.539,0.6,0.468,0.502,0.505
NCI-H2023,0.357,0.359,0.388,0.345,0.359,0.216,0.206,0.236,0.261,0.212,0.38,0.416,0.457,0.38,0.398,0.223,0.234,0.217,0.237,0.215
COR-L 105,0.434,0.421,0.46,0.419,0.427,0.362,0.356,0.365,0.439,0.529,0.396,0.52,0.506,0.486,0.62,0.596,0.622,0.619,0.657,0.646
NCI-H1734,0.371,0.387,0.355,0.338,0.416,0.475,0.457,0.413,0.437,0.397,0.418,0.408,0.38,0.396,0.372,0.49,0.519,0.472,0.506,0.467
NCI-H3122,0.226,0.173,0.184,0.181,0.21,0.793,0.588,0.47,0.603,0.66,0.34,0.362,0.414,0.33,0.385,0.493,0.431,0.447,0.48,0.374
HCC-78,0.437,0.468,0.511,0.54,0.522,0.206,–,0.24,0.272,0.213,0.769,0.688,0.716,0.902,0.729,0.741,0.659,0.686,0.655,0.631
NCI-H2085,0.481,0.476,0.477,0.415,0.493,0.553,0.465,0.443,0.502,0.451,0.69,0.846,0.732,0.771,0.717,0.606,0.532,0.592,0.573,0.558
